Reference: PMC8348686, “The Pharmacological Profile of Second Generation Pyrovalerone Cathinones and Related Cathinone Derivative” (International Journal of Molecular Sciences, 2021)
“Also recorded” adds a separate entry of the source. Like-named read-outs stand apart in the source and are kept apart here.

Key:
dopaminergic D2 receptor = dopaminergic D2 receptor (Homo sapiens, UniProt P14416); assay: Receptor binding, [3H]-spiperone
Description: Table 3 Monoamine transporter and receptor binding affinities of pyrovalerone and NEH. | column: D2 / Receptor Binding / Ki ± SD [μM] / [^3H]-Spiperone

hSERT = hSERT (Homo sapiens, UniProt P31645); assay: Transporter-mediated monoamine efflux, [3H]-5-HT preloaded HEK293 cells; assay type: cell-based; design: expressed in transfected cells; host or cells: HEK293; conditions: 100 μM of drug, 15 min, HEK293 hSERT preloaded with [3H]-5-HT; data for some pyrovalerones adapted from [13]
Sequence of hSERT (P31645 whole entry): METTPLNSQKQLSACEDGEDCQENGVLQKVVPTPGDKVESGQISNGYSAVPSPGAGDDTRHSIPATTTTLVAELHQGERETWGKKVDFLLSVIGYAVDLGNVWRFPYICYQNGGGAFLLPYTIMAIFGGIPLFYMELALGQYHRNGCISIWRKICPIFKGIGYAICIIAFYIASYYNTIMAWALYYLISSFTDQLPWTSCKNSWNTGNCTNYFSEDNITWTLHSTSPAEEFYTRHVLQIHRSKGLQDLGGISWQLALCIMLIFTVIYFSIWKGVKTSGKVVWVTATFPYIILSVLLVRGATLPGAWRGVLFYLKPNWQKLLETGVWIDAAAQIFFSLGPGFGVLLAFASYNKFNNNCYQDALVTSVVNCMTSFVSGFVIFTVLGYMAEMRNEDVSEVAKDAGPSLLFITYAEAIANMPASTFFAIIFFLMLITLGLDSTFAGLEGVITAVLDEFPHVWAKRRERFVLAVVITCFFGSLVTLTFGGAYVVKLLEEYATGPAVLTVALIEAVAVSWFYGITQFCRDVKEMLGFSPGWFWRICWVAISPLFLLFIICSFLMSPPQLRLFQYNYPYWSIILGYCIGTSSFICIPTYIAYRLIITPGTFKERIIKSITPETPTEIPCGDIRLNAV
Experimental: (§1) Monoamine efflux was assessed using human embryonic kidney 293 (HEK293) cells (Invitrogen, Zug, Switzerland) stably transfected with the human norepinephrine (hNET), dopamine (hDAT), or serotonin (hSERT) uptake transporters. In summary, the cells were seeded in poly-D-lysine coated XF24 cell culture microplates (Seahorse Biosciences, North Billerica, MA, USA) and cultured overnight at a concentration of 100,000 cells per well.
(§2) The cells were then exposed to Krebs–HEPES release buffer (85 μL/well) comprised of 130 mM NaCl, 1.3 mM KCl, 2.2 mM CaCl2, 1.2 mM MgSO4, 1.2 mM KH2PO4, 10 mM HEPES, and 10 mM D-glucose at a pH of 7.5, which also contained 10 nM radiolabelled neurotransmitter ([^3H]-5-HT for SERT, [^3H]-DA for DAT or [^3H]-NE for NET), 1 μM unlabelled neurotransmitter (DA or NE, only), 10 μM pargyline, and 0.2 mg/mL of ascorbic acid. This enabled the loading of the cells with their respective neurotransmitters via the uptake transporters. Afterwards, the release buffer was replaced by fresh buffer to wash the cells twice and the cells were then incubated for 15 min (DAT and SERT) or 45 min (NET) to 100 μM of test drugs dissolved in 1 mL of Krebs–HEPES buffer while shaking at 300 rpm and 37 °C. Termination of the release reaction occurred by removing the buffer from the cells and washing them with ice-cold buffer. Next, 50 μL of lysis buffer was added to the cells for 1 h in order to lyse the cells. Thereafter, 40 μL of the lysed cell mixture was transferred into scintillation vials (Perkin–Elmer, Schwerzenbach, Switzerland) containing 3 mL of scintillation fluid (Ultimagold, Perkin–Elmer, Schwerzenbach, Switzerland) and measured using liquid scintillation (as previously described in Section 2.2).
(§3) To quantify the “pseudo efflux” caused by the non-transporter mediated monoamine release and successive reuptake inhibition, each monoamine efflux experiment included a control where the cells were exposed to each respective transporter blocker (nisoxetine for NET, mazindol for DAT, and citalopram for SERT). The radioactivity inside the cells without any drug was set as 100%. The nonspecific release was subtracted from the total observed release at 100 μM of each examined drug to calculate the specific transporter mediated release. One single concentration of the test drugs was used (100 μM) and release exposure durations were set based on previously evaluated kinetics of the release-over-time curves.
(§4) An ANOVA followed by a Holm–Sidak test was conducted to compare each drug’s specific transporter-mediated efflux based on at least three independent experiments to the control condition.

hDAT = hDAT (Homo sapiens, UniProt Q01959); assay: Transporter-mediated monoamine efflux, [3H]-DA preloaded HEK293 cells; assay type: cell-based; design: expressed in transfected cells; host or cells: HEK293; conditions: 100 μM of drug, 15 min, HEK293 hDAT preloaded with [3H]-DA; data for some pyrovalerones adapted from [13]
Sequence of hDAT (Q01959 whole entry): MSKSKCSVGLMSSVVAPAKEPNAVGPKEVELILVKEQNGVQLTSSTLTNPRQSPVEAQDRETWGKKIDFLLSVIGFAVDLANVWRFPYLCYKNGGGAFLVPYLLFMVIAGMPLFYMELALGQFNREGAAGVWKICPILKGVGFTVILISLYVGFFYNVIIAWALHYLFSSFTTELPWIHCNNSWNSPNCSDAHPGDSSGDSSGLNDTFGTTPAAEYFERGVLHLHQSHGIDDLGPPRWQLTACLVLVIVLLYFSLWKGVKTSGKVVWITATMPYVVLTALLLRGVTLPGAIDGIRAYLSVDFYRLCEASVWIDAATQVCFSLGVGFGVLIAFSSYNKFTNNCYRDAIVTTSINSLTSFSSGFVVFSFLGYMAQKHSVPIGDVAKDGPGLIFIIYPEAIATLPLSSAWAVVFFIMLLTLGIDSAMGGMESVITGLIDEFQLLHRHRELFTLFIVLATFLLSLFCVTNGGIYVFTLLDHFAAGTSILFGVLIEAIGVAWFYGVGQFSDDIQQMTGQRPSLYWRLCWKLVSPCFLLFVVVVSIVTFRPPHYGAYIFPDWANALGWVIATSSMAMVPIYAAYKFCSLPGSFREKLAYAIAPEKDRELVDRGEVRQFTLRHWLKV
Experimental: as §1, §2, §3, §4

hNET [1] = biological target: T1, hNET (Homo sapiens, UniProt P23975); assay: Transporter binding, N-methyl-[3H]-nisoxetine
T1 sequence (P23975 whole entry): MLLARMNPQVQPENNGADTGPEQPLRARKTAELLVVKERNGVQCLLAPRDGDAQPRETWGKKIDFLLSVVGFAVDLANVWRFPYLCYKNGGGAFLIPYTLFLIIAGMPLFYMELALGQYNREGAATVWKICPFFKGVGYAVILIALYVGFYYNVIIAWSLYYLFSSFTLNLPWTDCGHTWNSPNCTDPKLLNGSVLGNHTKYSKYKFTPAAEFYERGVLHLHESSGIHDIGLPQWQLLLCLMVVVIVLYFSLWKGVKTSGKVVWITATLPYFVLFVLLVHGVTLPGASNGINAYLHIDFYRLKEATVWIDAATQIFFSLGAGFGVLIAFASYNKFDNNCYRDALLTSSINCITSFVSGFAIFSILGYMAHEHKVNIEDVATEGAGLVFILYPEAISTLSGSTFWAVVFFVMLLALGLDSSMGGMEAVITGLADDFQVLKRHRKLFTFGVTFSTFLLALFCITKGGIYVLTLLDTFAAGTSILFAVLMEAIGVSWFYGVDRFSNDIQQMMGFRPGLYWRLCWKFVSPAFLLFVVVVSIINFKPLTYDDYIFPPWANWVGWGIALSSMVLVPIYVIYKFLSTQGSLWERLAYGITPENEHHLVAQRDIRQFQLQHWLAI
Description: Table 3 Monoamine transporter and receptor binding affinities of pyrovalerone and NEH. | column: hNET / Receptor Binding / Ki ± SD [μM] / N-Methyl-[^3H]-nisoxetine

hNET [2] = biological target: T1, hNET; assay: Transporter-mediated monoamine efflux, [3H]-NE preloaded HEK293 cells; assay type: cell-based; design: expressed in transfected cells; host or cells: HEK293; conditions: 100 μM of drug, 45 min, HEK293 hNET preloaded with [3H]-NE; data for some pyrovalerones adapted from [13]
Experimental: as §1, §2, §3, §4

adrenergic α2A receptor [3] = biological target: T2, adrenergic α2A receptor (Homo sapiens, UniProt P08913); assay: Receptor binding, [3H]-rauwolscine
T2 sequence (P08913 1-465): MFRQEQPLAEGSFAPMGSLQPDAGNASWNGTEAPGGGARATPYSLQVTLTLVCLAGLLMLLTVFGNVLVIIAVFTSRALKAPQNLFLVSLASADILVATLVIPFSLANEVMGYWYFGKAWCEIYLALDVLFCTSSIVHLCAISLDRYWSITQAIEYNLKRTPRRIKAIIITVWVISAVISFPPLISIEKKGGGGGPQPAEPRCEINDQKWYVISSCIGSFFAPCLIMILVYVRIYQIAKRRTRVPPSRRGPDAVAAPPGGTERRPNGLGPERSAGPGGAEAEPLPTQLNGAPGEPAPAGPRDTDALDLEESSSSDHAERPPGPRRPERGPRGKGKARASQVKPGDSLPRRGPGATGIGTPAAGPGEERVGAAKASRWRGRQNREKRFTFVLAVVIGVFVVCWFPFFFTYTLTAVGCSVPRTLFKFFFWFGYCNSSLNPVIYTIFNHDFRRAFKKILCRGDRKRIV
Description: Table 3 Monoamine transporter and receptor binding affinities of pyrovalerone and NEH. | column: α2A / Receptor Binding / Ki ± SD [μM] / [^3H]-Rauwolscine

hNET [4] = biological target: T1, hNET; conditions: read-out: hNET Receptor Binding Ki ± SD, N-Methyl-[3H]-nisoxetine, cited from earlier work
adrenergic α2A receptor [5] = biological target: T2, adrenergic α2A receptor; conditions: [3H]-Rauwolscine, cited from earlier work; for Ki: read-out: α2A Receptor Binding Ki ± SD
Human TAAR1 = system: Human TAAR1; design: method as in Simmler et al. (2016); conditions: ref Simmler et al. (2016); read-out: Human TAAR1 Activation Potency EC50 ± SD; cited from earlier work
Rat TAAR1 = conditions: [3H]-RO5166017, cited from earlier work; for Ki: read-out: Rat TAAR1 Receptor Binding Ki ± SD
h5-HT2B receptor = biological target: T3, h5-HT2B receptor (Homo sapiens, UniProt P41595); design: method as in Rickli et al. (2015); conditions: read-out: h5-HT2B Activation Potency EC50 ± SD; ref Rickli et al. (2015); cited from earlier work
T3 construct: expressed in transfected cells; host or cells: HEK293
T3 sequence (P41595 whole entry): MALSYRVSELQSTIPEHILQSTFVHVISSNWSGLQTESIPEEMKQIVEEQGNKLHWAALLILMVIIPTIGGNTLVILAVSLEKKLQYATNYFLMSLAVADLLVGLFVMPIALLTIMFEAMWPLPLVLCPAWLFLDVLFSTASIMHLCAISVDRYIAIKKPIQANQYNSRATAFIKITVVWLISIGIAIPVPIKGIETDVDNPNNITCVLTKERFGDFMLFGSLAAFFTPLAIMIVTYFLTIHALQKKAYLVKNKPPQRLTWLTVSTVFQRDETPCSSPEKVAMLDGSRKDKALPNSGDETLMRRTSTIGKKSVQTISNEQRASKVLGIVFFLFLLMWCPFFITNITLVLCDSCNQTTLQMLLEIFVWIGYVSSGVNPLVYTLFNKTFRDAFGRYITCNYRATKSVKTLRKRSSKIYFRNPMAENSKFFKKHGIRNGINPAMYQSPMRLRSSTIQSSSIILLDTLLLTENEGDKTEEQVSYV

[6] = ref Luethi, Kolaczynska et al. (2019)

Sequence of dopaminergic D2 receptor (P14416 whole entry): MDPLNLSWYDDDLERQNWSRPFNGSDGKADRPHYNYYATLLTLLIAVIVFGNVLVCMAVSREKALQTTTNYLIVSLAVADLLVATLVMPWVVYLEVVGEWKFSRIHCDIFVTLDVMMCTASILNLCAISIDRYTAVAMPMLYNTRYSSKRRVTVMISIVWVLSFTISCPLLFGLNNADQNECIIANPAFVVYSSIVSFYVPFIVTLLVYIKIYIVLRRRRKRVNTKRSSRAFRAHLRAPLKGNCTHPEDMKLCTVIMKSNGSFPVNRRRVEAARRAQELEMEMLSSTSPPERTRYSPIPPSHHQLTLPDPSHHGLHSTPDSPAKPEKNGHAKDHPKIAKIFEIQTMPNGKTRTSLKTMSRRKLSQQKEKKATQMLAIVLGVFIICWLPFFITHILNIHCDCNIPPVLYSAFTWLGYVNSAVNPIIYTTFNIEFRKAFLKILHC

## Cc1ccc(C(=O)C(C)N2CCCC2)cc1 (stereo not drawn) [4-MePPP, 4-methyl-α-pyrrolidinopropiophenone]
Dopaminergic D2 receptor
  Ki: > 13 µM
hSERT
  Transporter-mediated monoamine efflux (5-HT) vs citalopram: no monoamine efflux was observed
hDAT
  Transporter-mediated monoamine efflux (DA) vs mazindol: no monoamine efflux was observed
hNET [1]
  Ki: 2500 ± 700 nM
hNET [2]
  Transporter-mediated monoamine efflux (NE) vs nisoxetine: no monoamine efflux was observed
Adrenergic α2A receptor [3]
  Ki: > 4.7 µM

## CCC(C(=O)c1ccc(F)cc1)N1CCCC1 (stereo not drawn) [4F-PBP, 4-fluoro-α-pyrrolidinobutiophenone]
hSERT
  Transporter-mediated monoamine efflux (5-HT) vs citalopram: did not induce any monoamine efflux
hDAT
  Transporter-mediated monoamine efflux (DA) vs mazindol: did not induce any monoamine efflux
hNET [2]
  Transporter-mediated monoamine efflux (NE) vs nisoxetine: did not induce any monoamine efflux

## CNC(C)Cc1ccc2c(c1)OCO2 (centres unmarked) [MDMA, 3,4-methylenedioxymethamphetamine, reference compound]
hNET [4]; [6]
  Ki: > 8700 nM
Adrenergic α2A receptor [5]; [6]
  Ki: 4.6 ± 1.1 µM
hSERT
  Transporter-mediated monoamine efflux (5-HT) vs citalopram: causes significant release at the transporters
hDAT
  Transporter-mediated monoamine efflux (DA) vs mazindol: causes significant release at the transporters
Human TAAR1
  EC50: 35 ± 21 µM
Rat TAAR1; [6]
  Ki: 0.25 ± 0.01 µM
h5-HT2B receptor
  EC50: > 20 µM
hNET [2]
  Transporter-mediated monoamine efflux (NE) vs nisoxetine: causes significant release at the transporters

## CCC(C(=O)c1ccc2c(c1)OCO2)N1CCCC1 (stereo not drawn) [MDPBP, 3,4-methylenedioxy-α-pyrrolidinobutiophenone]
hNET [4]; ref Rickli et al. (2015)
  Ki: 1100 ± 100 nM
Adrenergic α2A receptor [5]; ref Rickli et al. (2015)
  α2A Receptor Binding Ki ± SD: bound the receptor in the low micromolar range
  Ki: 9.4 ± 1.6 µM
Rat TAAR1; ref Rickli et al. (2015)
  Ki: > 20 µM

## CC(C(=O)c1ccc2c(c1)OCO2)N1CCCC1 (stereo not drawn) [MDPPP, 3,4-methylenedioxy-α-pyrrolidinopropiophenone]
hNET [4]; ref Rickli et al. (2015)
  Ki: 3500 ± 1000 nM
Adrenergic α2A receptor [5]; ref Rickli et al. (2015)
  α2A Receptor Binding Ki ± SD: bound the receptor in the low micromolar range
  Ki: 14 ± 0.9 µM
Rat TAAR1; ref Rickli et al. (2015)
  Rat TAAR1 Receptor Binding Ki ± SD: bound the rat TAAR1
  Ki: 16 ± 6.7 µM

## CCCC(C(=O)c1ccc2c(c1)OCO2)N1CCCC1 (centres unmarked) [MDPV, 3,4-methylenedioxypyrovalerone]
hNET [4]; ref Simmler et al. (2013)
  Ki: 80 ± 20 nM
Adrenergic α2A receptor [5]; ref Simmler et al. (2013)
  Ki: > 20 µM
Human TAAR1
  EC50: > 30 µM
Rat TAAR1; ref Simmler et al. (2013)
  Rat TAAR1 Receptor Binding Ki ± SD: bound the rat TAAR1
  Ki: 7.2 ± 1.1 µM

## CCCCC(C(=O)c1ccc(C)cc1)N1CCCC1 (stereo not drawn) [MPHP, 4-methyl-α-pyrrolidinohexanophenone]
hSERT
  Transporter-mediated monoamine efflux (5-HT) vs citalopram: no monoamine efflux was observed
hDAT
  Transporter-mediated monoamine efflux (DA) vs mazindol: no monoamine efflux was observed
hNET [2]
  Transporter-mediated monoamine efflux (NE) vs nisoxetine: no monoamine efflux was observed

## CCCCC(NCC)C(=O)c1ccccc1 (centres unmarked) [NEH, N-ethylamine-hexanophenone]
hSERT
  Transporter-mediated monoamine efflux (5-HT) vs citalopram: did not produce any monoamine efflux; also recorded: did not induce any monoamine efflux
hDAT
  Transporter-mediated monoamine efflux (DA) vs mazindol: did not produce any monoamine efflux; also recorded: did not induce any monoamine efflux
hNET [2]
  Transporter-mediated monoamine efflux (NE) vs nisoxetine: did not produce any monoamine efflux; also recorded: did not induce any monoamine efflux

## CCCC(C(=O)c1ccc(C)cc1)N1CCCC1 (centres unmarked) [Pyrovalerone, pyrovalerone]
hNET [4]; ref Simmler et al. (2013)
  Ki: 60 ± 10 nM
Adrenergic α2A receptor [5]; ref Simmler et al. (2013)
  Ki: > 20 µM
Rat TAAR1; ref Simmler et al. (2013)
  Ki: > 12.5 µM

## CCCCC(C(=O)c1ccccc1)N1CCCC1 (stereo not drawn) [α-PHP, α-pyrrolidinohexanophenone]
hSERT
  Transporter-mediated monoamine efflux (5-HT) vs citalopram: did not induce any monoamine efflux
hDAT
  Transporter-mediated monoamine efflux (DA) vs mazindol: did not induce any monoamine efflux
hNET [2]
  Transporter-mediated monoamine efflux (NE) vs nisoxetine: did not induce any monoamine efflux

## CC(C(=O)c1ccccc1)N1CCCC1 (stereo not drawn) [α-PPP, α-pyrrolidinopropiophenone]
hSERT
  Transporter-mediated monoamine efflux (5-HT) vs citalopram: did not induce any monoamine efflux
hDAT
  Transporter-mediated monoamine efflux (DA) vs mazindol: did not induce any monoamine efflux
hNET [2]
  Transporter-mediated monoamine efflux (NE) vs nisoxetine: did not induce any monoamine efflux

## CCCC(C(=O)c1ccccc1)N1CCCC1 (stereo not drawn) [α-PVP, α-pyrrolidinopentiophenone]
hNET [4]; ref Rickli et al. (2015)
  Ki: 60 ± 20 nM
Adrenergic α2A receptor [5]; ref Rickli et al. (2015)
  Ki: > 20 µM
hSERT
  Transporter-mediated monoamine efflux (5-HT) vs citalopram: did not induce any monoamine efflux
hDAT
  Transporter-mediated monoamine efflux (DA) vs mazindol: did not induce any monoamine efflux
Rat TAAR1; ref Rickli et al. (2015)
  Rat TAAR1 Receptor Binding Ki ± SD: bound the rat TAAR1
  Ki: 16 ± 6.4 µM
hNET [2]
  Transporter-mediated monoamine efflux (NE) vs nisoxetine: did not induce any monoamine efflux
